Patent US5693626A, “Tetrahydrofuran antifungals” (Schering Corporation, priority 1995, dated 1997)
Converted amounts (≈) assume the structure as drawn.

What was measured:
[1] = serum levels following oral dosing, mice; assay type: in vivo; conditions: methyl cellulose formulation
[2] = serum levels following oral dosing, rats; assay type: in vivo; conditions: methyl cellulose formulation
[3] = serum levels following oral dosing, dogs; assay type: in vivo; conditions: methyl cellulose formulation
[4] = serum levels following oral dosing, monkeys; assay type: in vivo; conditions: methyl cellulose formulation
[5] = tested on: cytochrome P-450 liver drug metabolizing enzymes; assay: induction of cytochrome P-450 after oral administration in an in vivo rat model
[6] = Janssen U.S. Pat. No. 4,791,111; cited from earlier work
Aspergillus [7] = assay: broth dilution MIC, Aspergillus; assay type: cell-based, Aspergillus (flavus, fumigatus and other species); conditions: for percentage of strains with MICs ≤1 mcg/ml / MIC90: Aspergillus, 37 strains; for percentage of strains with MICs ≤1 mcg/ml: Table Q; for MIC90: Table S
Candida albicans [8] = assay: broth dilution MIC, Candida albicans; assay type: cell-based; conditions: 26 strains; for percentage of strains with MICs ≤1 mcg/ml: Table Q; for MIC90: Table S
Procedure: (§1) The in vitro antifungal activity tests were performed via conventional broth dilution methods in Sabouraud dextrose broth ("SDB") medium and Eagles Minimum Essential Medium ("EMEM") against a large number of fungi. Minimum Inhibitory Concentrations ("MICs") were measured after 24, 48 and 72 hour tests. In many cases, Minimum Fungicidial Concentrations ("MFCS") were measured after 48 and 72 hours.

Candida krusei [9] = assay: broth dilution MIC, Candida krusei; assay type: cell-based; conditions: 16 strains; for percentage of strains with MICs ≤1 mcg/ml: Table Q; for MIC90: Pichia kudriavzevii, Table S
[10] = tested on: Candida tropicalis & stellatoidea; assay: broth dilution MIC, Candida tropicalis & stellatoidea; assay type: cell-based; conditions: 5 strains; for percentage of strains with MICs ≤1 mcg/ml: Table Q; for MIC90: Table S
Procedure: as §1

Candida glabrata [11] = assay: broth dilution MIC, Candida glabrata; assay type: cell-based; conditions: 9 strains; for percentage of strains with MICs ≤1 mcg/ml: Table Q
Procedure: as §1

Cryptococcus neoformans [12] = assay: broth dilution MIC, Cryptococcus neoformans; assay type: cell-based; conditions: 3 strains; for percentage of strains with MICs ≤1 mcg/ml: Table Q; for MIC90: Table S
Procedure: as §1

Dermatophytes [13] = assay: broth dilution MIC, Dermatophytes; assay type: cell-based, T. rubrum, T. mentagrophytes, and T. tonsurans; conditions: 6 strains; for percentage of strains with MICs ≤1 mcg/ml: Table Q; for MIC90: Table S
Aspergillus [14] = assay: broth dilution MFC, Aspergillus; assay type: cell-based, Aspergillus (flavus, fumigatus and other species); conditions: for percentage of strains with MFCs ≤1 mcg/ml: Aspergillus, 37 strains, Table R
Candida krusei [15] = assay: broth dilution MFC, Candida krusei; assay type: cell-based; conditions: 16 strains, Table R
Procedure: as §1

Candida glabrata [16] = assay: broth dilution MFC, Candida glabrata; assay type: cell-based; conditions: 9 strains, Table R
Procedure: as §1

Cryptococcus neoformans [17] = assay: broth dilution MFC, Cryptococcus neoformans; assay type: cell-based; conditions: 3 strains, Table R
Procedure: as §1

Dermatophytes [18] = assay: broth dilution MFC, Dermatophytes; assay type: cell-based, T. rubrum, T. mentagrophytes, and T. tonsurans; conditions: 6 strains, Table R
Procedure: as §1

Candida albicans [19] = assay: broth dilution MFC, Candida albicans; conditions: 26 strains, Table R
Procedure: as §1

[20] = tested on: Candida tropicalis & stellatoidea; assay: broth dilution MFC, Candida tropicalis & stellatoidea; conditions: 5 strains, Table R
Procedure: as §1

| SMILES | percentage of strains with MICs ≤1 mcg/ml (Aspergillus [7]) | percentage of strains with MICs ≤1 mcg/ml (Candida albicans [8]) | percentage of strains with MICs ≤1 mcg/ml (Candida krusei [9]) | MIC90 (Candida krusei [9]) [µg/mL] | percentage of strains with MICs ≤1 mcg/ml [10] | MIC90 [10] [µg/mL] | percentage of strains with MICs ≤1 mcg/ml (Candida glabrata [11]) | percentage of strains with MICs ≤1 mcg/ml (Cryptococcus neoformans [12]) | MIC90 (Cryptococcus neoformans [12]) [µg/mL] | percentage of strains with MICs ≤1 mcg/ml (Dermatophytes [13]) | MIC90 (Dermatophytes [13]) [µg/mL] | percentage of strains with MFCs ≤1 mcg/ml (Aspergillus [14]) | percentage of strains with MFCs ≤1 mcg/ml (Candida krusei [15]) | percentage of strains with MFCs ≤1 mcg/ml (Candida glabrata [16]) | percentage of strains with MFCs ≤1 mcg/ml (Cryptococcus neoformans [17]) | percentage of strains with MFCs ≤1 mcg/ml (Dermatophytes [18]) | percentage of strains with MFCs ≤1 mcg/ml (Candida albicans [19]) | percentage of strains with MFCs ≤1 mcg/ml [20] | MIC90 (Aspergillus [7]) [µg/mL] | MIC90 (Candida albicans [8]) [µg/mL] | other results |
| --- | --- | --- | --- | --- | --- | --- | --- | --- | --- | --- | --- | --- | --- | --- | --- | --- | --- | --- | --- | --- | --- |
| CC[C@@H]([C@H](C)O)n1ncn(-c2ccc(N3CCN(c4ccc(OC[C@@H]5CO[C@@](Cn6cncn6)(c6ccc(F)cc6F)C5)cc4)CC3)cc2)c1=O [drawing 21] |  |  |  |  |  |  |  |  |  |  |  |  |  |  |  |  |  |  |  |  | serum levels compared to azoles of similar structure [1]: consistently higher serum levels; serum levels compared to azoles of similar structure [2]: consistently higher serum levels; serum levels compared to azoles of similar structure [3]: consistently higher serum levels; serum levels compared to azoles of similar structure [4]: consistently higher serum levels; induction of cytochrome P-450 liver drug metabolizing enzymes [5]: not inducers |
| CC(O)C(C)n1ncn(-c2ccc(N3CCN(c4ccc(OCC5COC(Cn6cncn6)(c6ccc(Cl)cc6Cl)O5)cc4)CC3)cc2)c1=O (single isomer, unassigned; (+)) [(+)cis-4-[4-[4-[4-[[2-2,4-dichlorophenyl)-2-(1H-1,2,4-triazol-1-ylmethyl)-1,3-dioxolan-4-yl]methoxy]phenyl]-1-piperazinyl]-2,4dihydro-2-(2-hydroxy-1-methylpropyl)-3H-1,2,4-triazol-3-one] |  |  |  |  |  |  |  |  |  |  |  |  |  |  |  |  |  |  |  |  | solubility [6]: increased solubility |
| CC[C@H]([C@H](C)O)n1ncn(-c2ccc(N3CCN(c4ccc(OC[C@@H]5CO[C@@](Cn6cncn6)(c6ccc(F)cc6F)C5)cc4)CC3)cc2)c1=O | 100 percentage of strains | 100 percentage of strains | 100 percentage of strains | 0.058 (≈ 0.0828 µM) | 100 percentage of strains | 0.117 (≈ 0.167 µM) | 22 percentage of strains | 100 percentage of strains | 0.05 (≈ 0.0713 µM) | 100 percentage of strains | 0.165 (≈ 0.235 µM) | 50 percentage of strains | 88 percentage of strains | 22 percentage of strains | 100 percentage of strains | 67 percentage of strains | 100 percentage of strains | 100 percentage of strains |  |  |  |
| CC[C@@H]([C@H](C)O)n1ncn(-c2ccc(N3CCN(c4ccc(OC[C@@H]5CO[C@@](Cn6cncn6)(c6ccc(F)cc6F)C5)cc4)CC3)cc2)c1=O [drawing 23] | 100 percentage of strains | 100 percentage of strains | 100 percentage of strains | 0.014 (≈ 0.02 µM) | 100 percentage of strains | 0.117 (≈ 0.167 µM) | 22 percentage of strains | 100 percentage of strains | 0.007 (≈ 0.00999 µM) | 100 percentage of strains | 0.101 (≈ 0.144 µM) | 62 percentage of strains | 94 percentage of strains | 22 percentage of strains | 100 percentage of strains | 83 percentage of strains | 100 percentage of strains | 100 percentage of strains | 0.096 (≈ 0.137 µM) | 0.174 (≈ 0.248 µM) | MIC90 (Candida glabrata [11]; Nakaseomyces glabratus, Table S): 17.1 µg/mL (≈ 24.4 µM) |
| CC[C@@H]([C@@H](C)O)n1ncn(-c2ccc(N3CCN(c4ccc(OC[C@@H]5CO[C@@](Cn6cncn6)(c6ccc(F)cc6F)C5)cc4)CC3)cc2)c1=O | 100 percentage of strains | 100 percentage of strains | 100 percentage of strains | 0.12 (≈ 0.171 µM) | 100 percentage of strains | 0.354 (≈ 0.505 µM) | 33 percentage of strains | 100 percentage of strains | 0.101 (≈ 0.144 µM) | 100 percentage of strains | 0.707 (≈ 1.01 µM) | 89 percentage of strains | 100 percentage of strains | 22 percentage of strains | 100 percentage of strains | 100 percentage of strains | 100 percentage of strains | 100 percentage of strains | 0.112 (≈ 0.16 µM) | 0.139 (≈ 0.198 µM) |  |
| OC(Cn1cncn1)(Cn1cncn1)c1ccc(F)cc1F [fluconazole, reference compound] | 0 percentage of strains | 100 percentage of strains | 0 percentage of strains |  | 100 percentage of strains |  | 0 percentage of strains | 0 percentage of strains |  | 100 percentage of strains |  | 0 percentage of strains | 0 percentage of strains | 0 percentage of strains | 0 percentage of strains | 0 percentage of strains | 100 percentage of strains | 100 percentage of strains |  |  | MIC (Aspergillus [7]; SDB, 37 species of Aspergillus, bounds printed with ≤, b40, read-out: geometric mean MIC): ≤ 32 µg/mL; MFC (Aspergillus [14]; SDB, 37 species of Aspergillus, bounds printed with ≤, b40, read-out: geometric mean MFC): ≤ 32 µg/mL |
